# In patent publication US10100077B2, “6-aryl-9-glycosylpurines and use thereof” (UNIVERZITA PALACKEHO V OLOMOUCI, priority 2014, dated 2018):
# Test system: Arabidopsis wild-type plants (Col-0) detached leaves
# Assay: Differential gene expression study (RNA sequencing) in senescent detached leaves
# Description: Comparative gene expression analysis in Arabidopsis model was performed to gain information about the reprogramming of gene transcription when senescent leaves were treated with 6-(3-methoxybenzylamino)-9-β-D-arabinofuranosylpurine (3MeOBAPA).
# For isolation of total RNA, Arabidopsis wild-type plants (Col-0) were used, which were either treated with 3MeOBAPA or left untreated. Wild-type plants were grown in soil for 30 days, and then leaves of similar size and chlorophyll content were cut and immediately used for the treatment. At least 20 detached leaves were submerged in 1×MS medium supplemented with 10 μM 3MeOBAPA. Control samples were mock treated with DMSO only. After incubation for 6 h or 48 h in the dark, detached leaves were frozen in liquid nitrogen and used for RNA isolation; 150 mg of liquid nitrogen-ground material was used per isolation. cDNA sequencing libraries were prepared with the Illumina TruSeq Stranded mRNA LT Sample Prep Kit (Illumina, San Diego, Calif.) according to standard Illumina's protocols and sequenced on HiSeq 2500 apparatus (50 bp single-end reads). […] To gain insight into the molecular mechanism of 3MeOBAPA action in Arabidopsis we decided to analyze the gene expression patterns via comparison of mock (DMSO)-treated plants with those obtained after i) short time treatment with 3MeOBAPA (6 h) and ii) long time treatment (48 h). This comparison leads to identification of group of genes with similar kinetic of expression and helps to understand possible mechanism of regulation. For data analysis, we performed ab initio method where sequencing reads were mapped to the reference genome.
smiles,measurement,setting,value
COc1cccc(CNc2ncnc3c2ncn3[C@@H]2O[C@H](CO)[C@@H](O)[C@@H]2O)c1 [6-(3-methoxybenzylamino)-9-β-D-arabinofuranosylpurine],logFC AT1G02790 Polygalacturonase 4 (PGA4),"6 h, 10 μM",1.67
same,logFC AT1G05580 Cation/H(+) exchanger 23 (CHX23),"6 h, 10 μM",1.26
same,logFC AT1G10585 Basic helix-loop-helix (bHLH) DNA-binding superfamily protein,"6 h, 10 μM",0.38
same,logFC AT1G15540 2-oxoglutarate and Fe(II)-dependent oxygenase superfamily protein,"6 h, 10 μM",0.57
same,logFC AT1G19670 Chlorophyllase-1 (CLH1),"6 h, 10 μM",0.63
same,logFC AT1G55560 SKU5 similar 14 (SKS14),"6 h, 10 μM",1.71
same,logFC AT1G59860 17.6 kDa class I heat shock protein 1 (HSP17.6A),"6 h, 10 μM",0.48
same,logFC AT1G59950 NAD(P)-linked oxidoreductase superfamily protein,"6 h, 10 μM",1.08
same,logFC AT1G75830 Defensin-like protein 1.1 (PDF1.1),"6 h, 10 μM",1.06
same,logFC AT1G76640 Calcium-binding EF-hand family protein (CML39),"6 h, 10 μM",0.78
same,logFC AT2G02010 Glutamate decarboxylase 4 (GAD4),"6 h, 10 μM",0.55
same,logFC AT2G04460 Transposable element gene,"6 h, 10 μM",1.16
same,logFC AT2G18150 Peroxidase 15 (PER15),"6 h, 10 μM",0.68
same,logFC AT2G21900 WRKY transcription factor 59 (WRKY59),"6 h, 10 μM",0.54
same,logFC AT2G26010 Defensin-like protein 1.3 (PDF1.3),"6 h, 10 μM",1.47
same,logFC AT2G26020 Defensin-like protein 1.2B (PDF1.2B),"6 h, 10 μM",1.52
same,logFC AT2G26695 Ran BP2/NZF zinc finger-like superfamily protein,"6 h, 10 μM",0.50
same,logFC AT2G28210 Alpha carbonic anhydrase 2 (ATACA2),"6 h, 10 μM",0.85
same,logFC AT2G37430 Zinc finger protein ZAT11,"6 h, 10 μM",0.42
same,logFC AT2G39030 L-ornithine N5-acetyltransferase (NATA1),"6 h, 10 μM",0.56
same,logFC AT2G47040 Pectin methylesterase Vanguard1 (VGD1),"6 h, 10 μM",2.80
same,logFC AT2G47050 Plant invertase/pectin methylesterase inhibitor superfamily protein,"6 h, 10 μM",2.31
same,logFC AT3G05610 Pectinesterase/pectinesterase inhibitor 21 (PME21),"6 h, 10 μM",1.80
same,logFC AT3G07820 Pectin lyase-like superfamily protein,"6 h, 10 μM",2.22
same,logFC AT3G09340 Transmembrane amino acid transporter family protein,"6 h, 10 μM",0.55
same,logFC AT3G11340 UDP-Glycosyltransferase superfamily protein,"6 h, 10 μM",0.51
same,logFC AT3G13400 SKU5 similar 13 (SKS13),"6 h, 10 μM",0.82
same,logFC AT3G28153 Transposable element gene,"6 h, 10 μM",0.92
same,logFC AT3G28155 ARM repeat superfamily protein,"6 h, 10 μM",0.59
same,logFC AT3G44830 Putative phospholipid: diacylglycerol acyltransferase 2 (PDAT2),"6 h, 10 μM",0.38
same,logFC AT3G62710 Glycosyl hydrolase family protein,"6 h, 10 μM",1.35
same,logFC AT4G01390 TRAF-like family protein,"6 h, 10 μM",0.79
same,logFC AT4G21830 Peptide methionine sulfoxide reductase B7 (MSRB7),"6 h, 10 μM",0.55
same,"logFC AT4G22030 F-box domain, cyclin-like, F-box domain, Skp2-like protein","6 h, 10 μM",0.41
same,logFC AT4G22620 SAUR-like auxin-responsive family protein,"6 h, 10 μM",0.46
same,logFC AT4G24350 Phosphorylase superfamily protein,"6 h, 10 μM",0.64
same,logFC AT4G26010 Peroxidase 44 (PER44),"6 h, 10 μM",0.53
same,logFC AT4G31950 Cytochrome P450 82C3 (CYP82C3),"6 h, 10 μM",0.37
same,logFC AT4G35010 Beta-galactosidase 11 (BGAL11),"6 h, 10 μM",2.03
same,logFC AT4G37780 Myb domain protein 87 (MYB87),"6 h, 10 μM",0.41
same,logFC AT4G39320 Microtubule-associated protein-related,"6 h, 10 μM",0.45
same,logFC AT5G03610 GDSL esterase/lipase,"6 h, 10 μM",0.42
same,logFC AT5G12960 Putative glycosyl hydrolase,"6 h, 10 μM",1.33
same,logFC AT5G44420 Defensin-like protein 1.2A (PDF1.2A),"6 h, 10 μM",1.58
same,logFC AT5G44430 Defensin-like protein 1.2C (PDF1.2C),"6 h, 10 μM",1.75
same,logFC AT5G45880 Pollen Ole e 1 allergen and extensin family protein,"6 h, 10 μM",1.45
same,logFC AT5G52670 Copper transport family protein,"6 h, 10 μM",0.57
same,logFC AT5G61160 Agmatine coumaroyltransferase (ACT),"6 h, 10 μM",1.13
same,logFC AT5G62720 Integral membrane HPP family protein,"6 h, 10 μM",0.44
same,logFC AT5G63270 RPM1-interacting protein 4 (RIN4) family protein,"6 h, 10 μM",0.56
same,number of downregulated genes (P≤0.05),"6 h, 10 μM, vs mock",1119 genes
same,number of upregulated genes (P≤0.05),"6 h, 10 μM, vs mock",1102 genes
same,number of genes downregulated in both groups,6 h and 48 h overlap,724 genes
